Test results: article PMC4979471 (Cell Death Discovery, 2015)
Where two headings read alike, the source gives them in different places.

Experiments:
Test in all cases: Kinase selectivity, P33-radiolabeled assay
Assay type in all cases: biochemical
Settings in all cases: 10 μM ATP
MAPKAPK3 = biological target: T1, MAPKAPK3 (Homo sapiens, UniProt Q16644)
T1 construct: purchased Reaction Biology Corp
How it was run: (§1)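 Duplicate single-concentration testing used 10 μM compound. The ATP concentration was also 10 μM.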

FAK/PTK2 = biological target: T2, FAK/PTK2 (Homo sapiens, UniProt Q05397)
T2 construct: purchased Reaction Biology Corp
T2 sequence (Q05397 whole entry): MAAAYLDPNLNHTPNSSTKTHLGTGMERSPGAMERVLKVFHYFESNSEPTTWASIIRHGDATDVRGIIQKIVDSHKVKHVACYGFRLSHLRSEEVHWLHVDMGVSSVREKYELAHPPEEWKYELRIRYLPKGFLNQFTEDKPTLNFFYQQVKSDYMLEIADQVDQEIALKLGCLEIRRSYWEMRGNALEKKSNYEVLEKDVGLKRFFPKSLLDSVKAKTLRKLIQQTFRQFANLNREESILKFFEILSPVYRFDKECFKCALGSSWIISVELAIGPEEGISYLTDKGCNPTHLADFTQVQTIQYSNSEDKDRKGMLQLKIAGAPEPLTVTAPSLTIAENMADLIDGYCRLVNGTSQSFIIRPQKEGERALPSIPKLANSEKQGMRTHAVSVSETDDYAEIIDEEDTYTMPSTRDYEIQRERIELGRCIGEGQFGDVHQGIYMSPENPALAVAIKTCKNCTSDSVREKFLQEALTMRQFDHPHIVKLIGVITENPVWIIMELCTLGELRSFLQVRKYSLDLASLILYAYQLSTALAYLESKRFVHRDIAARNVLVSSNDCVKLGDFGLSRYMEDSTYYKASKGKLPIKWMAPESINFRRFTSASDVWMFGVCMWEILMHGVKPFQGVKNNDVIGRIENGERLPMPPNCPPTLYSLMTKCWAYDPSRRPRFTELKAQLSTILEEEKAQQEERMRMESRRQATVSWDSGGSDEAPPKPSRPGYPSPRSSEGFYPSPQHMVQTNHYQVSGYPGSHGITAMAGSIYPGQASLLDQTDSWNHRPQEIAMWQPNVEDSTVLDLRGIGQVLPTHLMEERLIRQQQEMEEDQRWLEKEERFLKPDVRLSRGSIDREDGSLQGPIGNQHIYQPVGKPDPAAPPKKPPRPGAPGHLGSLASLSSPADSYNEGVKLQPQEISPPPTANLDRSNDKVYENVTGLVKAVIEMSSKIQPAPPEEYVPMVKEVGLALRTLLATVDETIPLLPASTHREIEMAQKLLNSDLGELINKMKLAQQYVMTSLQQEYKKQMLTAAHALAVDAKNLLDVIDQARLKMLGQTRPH
How it was run: as §1

PKG1b = biological target: T3, PKG1b (Homo sapiens, UniProt Q13976)
T3 construct: purchased Reaction Biology Corp
T3 sequence (Q13976 1-686 isoform Q13976-2): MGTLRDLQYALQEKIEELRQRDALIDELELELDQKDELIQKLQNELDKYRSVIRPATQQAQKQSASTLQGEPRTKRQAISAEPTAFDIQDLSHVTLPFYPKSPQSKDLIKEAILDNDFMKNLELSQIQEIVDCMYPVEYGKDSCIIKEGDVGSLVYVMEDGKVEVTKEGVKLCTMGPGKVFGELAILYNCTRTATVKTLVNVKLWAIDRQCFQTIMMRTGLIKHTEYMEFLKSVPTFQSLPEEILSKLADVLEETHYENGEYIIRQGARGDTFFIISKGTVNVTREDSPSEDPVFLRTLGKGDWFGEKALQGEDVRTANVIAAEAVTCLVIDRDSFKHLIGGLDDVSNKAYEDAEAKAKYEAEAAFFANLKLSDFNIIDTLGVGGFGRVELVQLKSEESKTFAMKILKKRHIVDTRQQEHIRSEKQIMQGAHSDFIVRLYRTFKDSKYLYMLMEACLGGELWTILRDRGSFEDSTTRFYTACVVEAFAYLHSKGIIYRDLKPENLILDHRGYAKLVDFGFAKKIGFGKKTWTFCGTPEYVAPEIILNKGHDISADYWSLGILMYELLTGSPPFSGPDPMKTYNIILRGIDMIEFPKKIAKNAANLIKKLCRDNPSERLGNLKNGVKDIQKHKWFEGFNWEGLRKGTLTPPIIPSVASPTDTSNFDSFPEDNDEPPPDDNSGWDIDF
How it was run: as §1

GRK3 = biological target: T4, GRK3 (Homo sapiens, UniProt P35626)
T4 construct: purchased Reaction Biology Corp
T4 sequence (P35626 1-688): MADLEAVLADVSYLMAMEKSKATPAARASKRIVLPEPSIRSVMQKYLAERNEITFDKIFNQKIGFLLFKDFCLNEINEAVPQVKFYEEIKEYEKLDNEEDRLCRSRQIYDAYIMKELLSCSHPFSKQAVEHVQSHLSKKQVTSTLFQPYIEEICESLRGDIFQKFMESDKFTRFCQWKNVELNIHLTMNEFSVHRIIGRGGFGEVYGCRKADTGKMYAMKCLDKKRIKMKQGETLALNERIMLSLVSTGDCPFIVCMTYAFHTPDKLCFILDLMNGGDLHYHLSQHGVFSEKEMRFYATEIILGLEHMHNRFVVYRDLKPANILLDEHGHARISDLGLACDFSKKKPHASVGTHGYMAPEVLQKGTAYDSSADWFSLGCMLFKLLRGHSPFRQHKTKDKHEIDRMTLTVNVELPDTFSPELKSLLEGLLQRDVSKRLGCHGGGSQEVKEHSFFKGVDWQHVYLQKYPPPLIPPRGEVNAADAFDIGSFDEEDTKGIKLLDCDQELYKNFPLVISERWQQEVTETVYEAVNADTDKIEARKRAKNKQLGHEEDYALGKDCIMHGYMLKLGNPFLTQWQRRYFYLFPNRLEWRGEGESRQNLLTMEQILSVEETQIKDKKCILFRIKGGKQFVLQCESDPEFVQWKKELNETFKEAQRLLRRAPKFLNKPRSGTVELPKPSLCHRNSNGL
How it was run: as §1

STK38L/NDR2 = biological target: T5, STK38L/NDR2 (Homo sapiens, UniProt Q9Y2H1)
T5 construct: purchased Reaction Biology Corp
T5 sequence (Q9Y2H1 whole entry): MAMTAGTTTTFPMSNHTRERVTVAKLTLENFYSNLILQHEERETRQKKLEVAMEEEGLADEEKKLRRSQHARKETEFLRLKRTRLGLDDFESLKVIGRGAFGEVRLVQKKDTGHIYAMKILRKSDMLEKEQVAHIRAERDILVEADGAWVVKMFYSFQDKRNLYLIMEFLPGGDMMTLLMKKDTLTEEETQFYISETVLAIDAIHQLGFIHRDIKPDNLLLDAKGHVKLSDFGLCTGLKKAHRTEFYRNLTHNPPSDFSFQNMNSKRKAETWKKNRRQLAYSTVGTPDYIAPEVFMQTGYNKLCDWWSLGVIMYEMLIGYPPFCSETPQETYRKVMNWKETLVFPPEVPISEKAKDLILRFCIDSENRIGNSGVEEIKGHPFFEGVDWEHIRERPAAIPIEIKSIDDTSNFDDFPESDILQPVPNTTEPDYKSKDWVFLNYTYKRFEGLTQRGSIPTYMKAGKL
How it was run: as §1

STK32C/YANK3 = biological target: T6, STK32C/YANK3 (Homo sapiens, UniProt Q86UX6)
T6 construct: purchased Reaction Biology Corp
T6 sequence (Q86UX6 whole entry): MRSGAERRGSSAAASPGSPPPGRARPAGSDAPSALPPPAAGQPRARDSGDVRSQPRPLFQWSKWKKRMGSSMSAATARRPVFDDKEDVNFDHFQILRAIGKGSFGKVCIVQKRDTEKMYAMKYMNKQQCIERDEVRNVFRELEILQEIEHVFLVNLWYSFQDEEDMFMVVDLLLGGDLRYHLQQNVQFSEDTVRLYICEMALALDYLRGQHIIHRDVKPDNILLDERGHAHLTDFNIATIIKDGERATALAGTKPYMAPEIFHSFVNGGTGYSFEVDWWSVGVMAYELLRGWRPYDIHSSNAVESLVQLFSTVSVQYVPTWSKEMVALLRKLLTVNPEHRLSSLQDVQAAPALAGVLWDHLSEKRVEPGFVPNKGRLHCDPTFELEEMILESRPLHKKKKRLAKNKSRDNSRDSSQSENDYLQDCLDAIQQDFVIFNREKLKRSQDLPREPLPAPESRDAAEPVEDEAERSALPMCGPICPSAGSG
How it was run: as §1

SGK3/SGKL = biological target: T7, SGK3/SGKL (Homo sapiens, UniProt Q96BR1)
T7 construct: purchased Reaction Biology Corp
T7 sequence (Q96BR1 1-496): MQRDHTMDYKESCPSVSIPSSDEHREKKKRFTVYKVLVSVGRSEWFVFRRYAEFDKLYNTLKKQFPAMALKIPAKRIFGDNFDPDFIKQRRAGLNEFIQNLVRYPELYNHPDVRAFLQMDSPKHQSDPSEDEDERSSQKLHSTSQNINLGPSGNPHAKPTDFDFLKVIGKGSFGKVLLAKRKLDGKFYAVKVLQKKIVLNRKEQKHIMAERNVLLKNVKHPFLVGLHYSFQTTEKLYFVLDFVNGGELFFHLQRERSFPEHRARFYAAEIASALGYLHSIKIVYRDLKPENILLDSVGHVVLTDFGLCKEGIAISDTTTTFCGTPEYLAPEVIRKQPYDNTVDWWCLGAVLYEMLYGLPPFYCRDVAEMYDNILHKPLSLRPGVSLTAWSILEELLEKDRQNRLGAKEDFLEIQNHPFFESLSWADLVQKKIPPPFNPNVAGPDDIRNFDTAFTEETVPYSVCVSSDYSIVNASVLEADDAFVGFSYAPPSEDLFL
How it was run: as §1

[1] = read-out: % Enzyme Activity (relative to DMSO controls) AVG
[2] = read-out: % Enzyme Activity (relative to DMSO controls) Data 1
[3] = read-out: % Enzyme Activity (relative to DMSO controls) Data 2

T1 sequence (Q16644 whole entry): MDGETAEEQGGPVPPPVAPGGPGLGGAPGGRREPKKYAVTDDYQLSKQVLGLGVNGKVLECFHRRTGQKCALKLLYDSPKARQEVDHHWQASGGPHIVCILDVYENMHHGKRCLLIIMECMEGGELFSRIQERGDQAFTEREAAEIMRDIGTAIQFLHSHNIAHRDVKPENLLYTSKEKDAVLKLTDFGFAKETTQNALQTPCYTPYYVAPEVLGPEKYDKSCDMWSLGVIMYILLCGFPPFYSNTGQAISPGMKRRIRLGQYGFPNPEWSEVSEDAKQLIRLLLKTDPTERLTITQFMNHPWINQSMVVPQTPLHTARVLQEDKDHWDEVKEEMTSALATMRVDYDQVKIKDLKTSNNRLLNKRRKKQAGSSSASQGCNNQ

CC(C)(C)C(=O)N1N=CC[C@H]1c1ccccc1 [GSK′963]
remaining activity at 10 µM (MAPKAPK3; [1]): 103%
remaining activity at 10 µM (MAPKAPK3; [2]): 104%
remaining activity at 10 µM (MAPKAPK3; [3]): 103%
remaining activity at 10 µM (FAK/PTK2; [1]): 101%
remaining activity at 10 µM (FAK/PTK2; [2]): 101%
remaining activity at 10 µM (FAK/PTK2; [3]): 101%
remaining activity at 10 µM (PKG1b; [1]): 80.5%
remaining activity at 10 µM (PKG1b; [2]): 78.3%
remaining activity at 10 µM (PKG1b; [3]): 82.6%
remaining activity at 10 µM (GRK3; [1]): 97.9%
remaining activity at 10 µM (GRK3; [2]): 98.1%
remaining activity at 10 µM (GRK3; [3]): 97.6%
remaining activity at 10 µM (STK38L/NDR2; [1]): 99.8%
remaining activity at 10 µM (STK38L/NDR2; [2]): 101%
remaining activity at 10 µM (STK38L/NDR2; [3]): 98.1%
remaining activity at 10 µM (STK32C/YANK3; [1]): 98.9%
remaining activity at 10 µM (STK32C/YANK3; [2]): 97.5%
remaining activity at 10 µM (STK32C/YANK3; [3]): 100%
remaining activity at 10 µM (SGK3/SGKL; [1]): 107%
remaining activity at 10 µM (SGK3/SGKL; [2]): 104%
remaining activity at 10 µM (SGK3/SGKL; [3]): 110%
